In patent publication US12544391B2, “CD73 inhibitors” (ORIC Pharmaceuticals, Inc., priority 2019, dated 2026):

These compounds were tested against T1, CD73 (Homo sapiens, UniProt P21589) (assay: CD73 biochemical assay, Malachite Green detection of AMP hydrolysis). Settings: CD73 320 pM, AMP 15 μM, Malachite Green readout.
T1 sequence (P21589 27-549): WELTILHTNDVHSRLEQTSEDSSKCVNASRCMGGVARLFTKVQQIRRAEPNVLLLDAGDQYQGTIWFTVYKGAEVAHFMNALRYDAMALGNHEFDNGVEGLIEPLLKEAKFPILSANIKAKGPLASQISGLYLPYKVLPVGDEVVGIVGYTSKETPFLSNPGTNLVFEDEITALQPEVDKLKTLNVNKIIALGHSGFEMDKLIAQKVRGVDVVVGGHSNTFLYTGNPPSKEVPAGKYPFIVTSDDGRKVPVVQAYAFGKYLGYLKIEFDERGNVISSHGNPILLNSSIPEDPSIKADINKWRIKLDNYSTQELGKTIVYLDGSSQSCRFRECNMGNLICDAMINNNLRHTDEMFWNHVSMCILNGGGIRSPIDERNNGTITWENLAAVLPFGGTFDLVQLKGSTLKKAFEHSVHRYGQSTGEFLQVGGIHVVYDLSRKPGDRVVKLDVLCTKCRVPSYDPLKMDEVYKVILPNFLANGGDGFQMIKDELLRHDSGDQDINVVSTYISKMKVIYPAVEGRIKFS
Description: Assay Reaction Conditions
• Assay Volume: 70 μl • Reaction Volume: 50 μl • CD73: 0.3208 nM • AMP: 15 μM • Assay Buffer: 2 5 mM Tris-HCL, pH 7.4, 0.01% Brij-35, 0.01% BSA, 5 mM MgCl2 Assay Procedure:
A clear 384 well plate was used in this assay.
Made dose titration of testing compounds in assay buffer, 10 points ½ log titrations in duplicates starting at 100 μM. Total volume for each well was 25 μl, with CD73 then added to each well for a final concentration of 320 pM. The solution was then incubated at RT for 15 min. 25 μl of AMP was added to each well for a final concentration of 15 μM, and then incubated at rt for 10 min. 10 μl of Malachite Green Reagent A was then added and allowed to incubate at rt for 10 min. 10 μl of Malachite Green Reagent B was then added and allowed to incubate at rt for 45 min. The absorbance for each sample was read on an Envision plate reader using excitation filter: Cy5 […].
The ability of the compounds disclosed herein to inhibit CD73 activity was quantified and the respective IC50 values were determined. Table 2 provides the biochemical IC50 values of compounds disclosed herein.
An IC50 of 1 to 100 nM was found for `COC[C@@](C)(OC[C@H]1O[C@@H](c2ccc3c(NC4CCCC4)nc(Cl)nn23)[C@H](O)[C@@H]1O)P(=O)(O)O` [Example 31, ((S)-2-(((2R,3S,4R,5S)-5-(2-chloro-4-(cyclopentylamino)pyrrolo[2,1-f][1,2,4]triazin-7-yl)-3,4-dihydroxytetrahydrofuran-2-yl)methoxy)-1-methoxypropan-2-yl)phosphonic acid] in this work. An IC50 of 1 to 100 nM was found for `O=P(O)(O)[C@](CO)(COCc1nn[nH]n1)OC[C@H]1O[C@@H](c2ccc3c(NCC4CCCC4)nc(Cl)nn23)[C@H](O)[C@@H]1O` [Example 48, ((R)-1-((2H-tetrazol-5-yl)methoxy)-2-(((2R,3S,4R,5S)-5-(2-chloro-4-((cyclopentylmethyl)amino)pyrrolo[2,1-f][1,2,4]triazin-7-yl)-3,4-dihydroxytetrahydrofuran-2-yl)methoxy)-3-hydroxypropan-2-yl)phosphonic acid] in this work. An IC50 of no more than 0.5 nM was found for `CCOC(=O)COC[C@@](COC)(OC[C@H]1O[C@@H](c2ccc3c(NC4CCCC4)nc(Cl)nn23)[C@H](O)[C@@H]1O)P(=O)(O)O` [Example 26, ((S)-2-(((2R,3S,4R,5S)-5-(2-chloro-4-(cyclopentylamino)pyrrolo[2,1-f][1,2,4]triazin-7-yl)-3,4-dihydroxytetrahydrofuran-2-yl)methoxy)-1-(2-ethoxy-2-oxoethoxy)-3-methoxypropan-2-yl)phosphonic acid] in this work. An IC50 of 1 to 100 nM was found for `O=P(O)(O)[C@](CO)(Cc1nn[nH]n1)OC[C@H]1O[C@@H](c2ccc3c(NC4CCCC4)nc(Cl)nn23)[C@H](O)[C@@H]1O` [Example 2, ((S)-2-(((2R,3S,4R,5S)-5-(2-Chloro-4-(cyclopentylamino)pyrrolo[2,1-f][1,2,4]triazin-7-yl)-3,4-dihydroxytetrahydrofuran-2-yl)methoxy)-1-hydroxy-3-(2H-tetrazol-5-yl)propan-2-yl)phosphonic acid] in this work. An IC50 of 1 to 100 nM was found for `O=P(O)(O)C(CO)(COCc1nnn[nH]1)OC[C@H]1O[C@H](c2cnn3c(NC4CCCC4)cc(Cl)nc23)[C@H](O)[C@@H]1O` (stereo partly drawn) [Example 43, (1-((1H-tetrazol-5-yl)methoxy)-2-(((2R,3S,4R,5R)-5-(5-chloro-7-(cyclopentylamino)pyrazolo[1,5-a]pyrimidin-3-yl)-3,4-dihydroxytetrahydrofuran-2-yl)methoxy)-3-hydroxypropan-2-yl)phosphonic acid] in this work. An IC50 of 0.5 to 1 nM was found for `COCC(OC[C@H]1O[C@@H](c2ccc3c(NC4CCCC4)nc(Cl)nn23)[C@H](O)[C@@H]1O)P(=O)(O)O` (stereo partly drawn) [Example 14, (1-(((2R,3S,4R,5S)-5-(2-chloro-4-(cyclopentylamino)pyrrolo[2,1-f][1,2,4]triazin-7-yl)-3,4-dihydroxytetrahydrofuran-2-yl)methoxy)-2-methoxyethyl)phosphonic acid] in this work. An IC50 of 1 to 100 nM was found for `CC(CO)(OC[C@H]1O[C@@H](c2ccc3c(NC4CCCC4)nc(Cl)nn23)[C@H](O)[C@@H]1O)P(=O)(O)O` (stereo partly drawn) [Example 19, (2-(((2R,3S,4R,5S)-5-(2-chloro-4-(cyclopentylamino)pyrrolo[2,1-f][1,2,4]triazin-7-yl)-3,4-dihydroxytetrahydrofuran-2-yl)methoxy)-1-hydroxypropan-2-yl)phosphonic acid] in this work. An IC50 of 0.5 to 1 nM was found for `C[C@@](CO)(OC[C@H]1O[C@@H](c2ccc3c(NC4CCCC4)nc(Cl)nn23)[C@H](O)[C@@H]1O)P(=O)(O)O` [Example 34, ((R)-2-(((2R,3S,4R,5S)-5-(2-chloro-4-(cyclopentylamino)pyrrolo[2,1-f][1,2,4]triazin-7-yl)-3,4-dihydroxytetrahydrofuran-2-yl)methoxy)-1-hydroxypropan-2-yl)phosphonic acid] in this work. An IC50 of no more than 0.5 nM was found for `O=P(O)(O)[C@](CO)(COCc1nn[nH]n1)OC[C@H]1O[C@@H](c2ccc3c(N[C@@H]4CCc5ccccc54)nc(Cl)nn23)[C@H](O)[C@@H]1O` [Example 40, ((R)-1-((2H-tetrazol-5-yl)methoxy)-2-(((2R,3S,4R,5S)-5-(2-chloro-4-(((R)-2,3-dihydro-1H-inden-l-yl)amino)pyrrolo[2,1-f][1,2,4]triazin-7-yl)-3,4-dihydroxytetrahydrofuran-2-yl)methoxy)-3-hydroxypropan-2-yl)phosphonic acid] in this work. An IC50 of no more than 0.5 nM was found for `COCC(COCc1nn[nH]n1)(OC[C@H]1O[C@@H](c2cnn3c(NC4CCCC4)cc(Cl)nc23)[C@H](O)[C@@H]1O)P(=O)(O)O` (stereo partly drawn) [Example 57, (1-((2H-tetrazol-5-yl)methoxy)-2-(((2R,3S,4R,5S)-5-(5-chloro-7-(cyclopentylamino)pyrazolo[1,5-a]pyrimidin-3-yl)-3,4-dihydroxytetrahydrofuran-2-yl)methoxy)-3-methoxypropan-2-yl)phosphonic acid] in this work. An IC50 of 100 to 1000 nM was found for `C[C@@]1(c2ccc3c(NC4CCCC4)nc(Cl)nn23)O[C@H](CO[C@@](CO)(COCc2nn[nH]n2)P(=O)(O)O)[C@@H](O)[C@H]1O` [Example 36, ((R)-1-((2H-tetrazol-5-yl)methoxy)-2-(((2R,3S,4R,5S)-5-(2-chloro-4-(cyclopentylamino)pyrrolo[2,1-f][1,2,4]triazin-7-yl)-3,4-dihydroxy-5-methyltetrahydrofuran-2-yl)methoxy)-3-hydroxypropan-2-yl)phosphonic acid] in this work. An IC50 of 1 to 100 nM was found for `O=P(O)(O)C(CO)(CO)OC[C@H]1O[C@H](c2cnn3c(NC4CCCC4)cc(Cl)nc23)[C@H](O)[C@@H]1O` [Example 18, (2-(((2R,3S,4R,5R)-5-(5-Chloro-7-(cyclopentylamino)pyrazolo[1,5-a]pyrimidin-3-yl)-3,4-dihydroxytetrahydrofuran-2-yl)methoxy)-1,3-dihydroxypropan-2-yl)phosphonic acid] in this work. An IC50 of 0.5 to 1 nM was found for `O=P(O)(O)C(CO)(Cc1nn[nH]n1)OC[C@H]1O[C@@H](c2ccc3c(NC4CCCC4)nc(CO)nn23)[C@H](O)[C@@H]1O` (stereo partly shown) [Example 21] in this work. An IC50 of 0.5 to 1 nM was found for `O=P(O)(O)C(CO)(CO)OC[C@H]1O[C@@H](c2ccc3c(NC4CCCC4)nc(Cl)nn23)[C@H](O)[C@@H]1O` [Example 11, (2-(((2R,3S,4R,5S)-5-(2-chloro-4-(cyclopentylamino)pyrrolo[2,1-f][1,2,4]triazin-7-yl)-3,4-dihydroxytetrahydrofuran-2-yl)methoxy)-1,3-dihydroxypropan-2-yl)phosphonic acid] in this work. An IC50 of no more than 0.5 nM was found for `COCC(COC)(OC[C@H]1O[C@@H](c2ccc3c(NC4CCCC4)nc(Cl)nn23)[C@H](O)[C@@H]1O)P(=O)(O)O` [Example 30, (2-(((2R,3S,4R,5S)-5-(2-chloro-4-(cyclopentylamino)pyrrolo[2,1-f][1,2,4]triazin-7-yl)-3,4-dihydroxytetrahydrofuran-2-yl)methoxy)-1,3-dimethoxypropan-2-yl)phosphonic acid] in this work. An IC50 of no more than 0.5 nM was found for `[2H]C([2H])([2H])OC[C@](COCc1nn[nH]n1)(OC[C@H]1O[C@@H](c2ccc3c(NC4CCCC4)nc(Cl)nn23)[C@H](O)[C@@H]1O)P(=O)(O)O` [Example 55, ((S)-1-((2H-tetrazol-5-yl)methoxy)-2-(((2R,3S,4R,5S)-5-(2-chloro-4-(cyclopentylamino)pyrrolo[2,1-f][1,2,4]triazin-7-yl)-3,4-dihydroxytetrahydrofuran-2-yl)methoxy)-3-(methoxy-d3)propan-2-yl)phosphonic acid] in this work. An IC50 of no more than 0.5 nM was found for `O=P(O)(O)[C@@](CO)(COCc1nn[nH]n1)OC[C@H]1O[C@@H](c2ccc3c(NCC4CCC4)nc(Cl)nn23)[C@H](O)[C@@H]1O` [Example 52, ((S)-1-((2H-tetrazol-5-yl)methoxy)-2-(((2R,3S,4R,5S)-5-(2-chloro-4-((cyclobutylmethyl)amino)pyrrolo[2,1-f][1,2,4]triazin-7-yl)-3,4-dihydroxytetrahydrofuran-2-yl)methoxy)-3-hydroxypropan-2-yl)phosphonic acid] in this work. An IC50 of 1 to 100 nM was found for `COC[C@](OC[C@H]1O[C@@H](c2ccc3c(NC4CCCC4)nc(Cl)nn23)[C@H](O)[C@@H]1O)(C(=O)O)P(=O)(O)O` [Example 47, (R)-2-(((2R,3S,4R,5S)-5-(2-chloro-4-(cyclopentylamino)pyrrolo[2,1-f][1,2,4]triazin-7-yl)-3,4-dihydroxytetrahydrofuran-2-yl)methoxy)-3-methoxy-2-phosphonopropanoic acid] in this work. An IC50 of 100 to 1000 nM was found for `C[C@@]1(c2ccc3c(NC4CCCC4)nc(Cl)nn23)O[C@H](COC(CO)(COCc2nnn[nH]2)P(=O)(O)O)[C@@H](O)[C@H]1O` (stereo partly drawn) [Example 29, (1-((1H-tetrazol-5-yl)methoxy)-2-(((2R,3S,4R,5S)-5-(2-chloro-4-(cyclopentylamino)pyrrolo[2,1-f][1,2,4]triazin-7-yl)-3,4-dihydroxy-5-methyltetrahydrofuran-2-yl)methoxy)-3-hydroxypropan-2-yl)phosphonic acid] in this work.
